What all share (type): cell-based
Experiment [1] has as its system Murine Swiss 3T3 cells. Put plainly: IL-1 stimulated prostaglandin E2 synthesis, murine fibroblasts. As to conditions: oligonucleotides 30 μm for 48 hours, then IL-1β 10 μ/ml for 6 hours, control 60. The method, then:
(§1) 1. IL-1 stimulated prostaglandin E2 synthesis.
(§2) Effects of expression of IL-1 receptors by murine and human fibroblasts were assessed as follows Murine Swiss 3T3 cells (American Type Culture Collection ATCC CCL 92) or human dermal fibroblasts (primary culture) were grown in 96-well plates in Dulbecco's modified Eagles medium containing either 10% calf serum or 10% fetal bovine serum, respectively (Grand Island Biological Company), to confluency. The culture medium was replaced with identical medium except that the serum had been heat-inactivated at 65° C. for 15 minutes to inactivate nucleases. Oligonucleotides (30 μm) were added to the cultures and incubated for 48 hours. […] Oligonucleotides (phosphorothioates) S0-1, S0-2 and S0-3 are antisense to murine IL-1 receptor DNA and S0-6 is antisense to human IL-1 receptor DNA.

The subject of experiment [2] is human dermal fibroblasts. In words: IL-1 stimulated prostaglandin E2 synthesis, human fibroblasts. Conditions: Human cells; oligonucleotides 30 μm for 48 hours, then IL-1β 10 μ/ml for 6 hours; control 25. The procedure:
as §1, §2

The subject of experiment [3] is human dermal fibroblasts. Put plainly: Liposome delivery, IL-1 stimulated PGE2 in human dermal fibroblasts. As to conditions: liposomes; S0-6 30 μM; IL-1 10 U/ml for 4 hours; control (empty liposome) 65.
Procedure: For the experiment human dermal fibroblasts were incubated for 18 hours with IL-1, 100 u/ml., to down-regulate existing receptors. The cells were then rinsed three times with phosphate-buffered saline containing 2 mM calcium and 0.1 mM magnesium to remove IL-1, then incubated 30 minutes. Liposomes were then added and the mixture was incubated for 30 minutes. Finally, polyethylene glycol (M.W.6000) was added for 1 minute, then the cultures were rinsed three times in culture medium. Cultures were incubated for eight hours, then stimulated with IL-1, 10 U/ml for 4 hours. Media were collected for radioimmunoassy of PGE2.

Experimental findings from patent US5135917A, “Interleukin receptor expression inhibiting antisense oligonucleotides” (Nova Pharmaceutical Corporation, priority 1990, dated 1992) are described below.

For “IL-1: cytokine interleukin 1, used as stimulus of prostaglandin E2 synthesis”, the “PGE2, pg/well” value in experiment [1] is recorded as 375 pg/well; in experiment [2], 285 pg/well; in experiment [3] it was 398 pg/well.
